Experiments:
[1] = Upregulation of efflux pump regulator gene expression in Klebsiella pneumoniae at 3 ug/ml incubated for 12 hrs by transcriptome analysis; assay type: ADME; details: dose 3 µg/ml
Klebsiella pneumoniae [2] = assay: Hormesis activity against Klebsiella pneumonia deficient in KmrA gene expression assessed as promotion of bacterial growth at 3 to 6 ug/ml measured for 24 hrs by OD600 based analysis; assay type: organism-based; details: in vivo, dose 3-6 µg/ml
[3] = Upregulation of KmrA promoter activity in Klebsiella pneumoniae assessed as increase in beta-galactosidase activity at 3 ug/ml by LacZ based OD600 analysis relative to control; assay type: ADME; details: dose 3 µg/ml
[4] = Upregulation of efflux pump regulator promoter activity in Klebsiella pneumoniae assessed as increase in beta-galactosidase activity at 50 ug/ml by LacZ based OD600 analysis relative to control; assay type: ADME; details: dose 50 µg/ml
Klebsiella pneumoniae [5] = assay: Hormesis activity against Klebsiella pneumonia assessed as promotion of bacterial growth by measuring prolonged logarithmic growth phase at 3 to 6 ug/ml measured for 24 hrs in presence of 1 ug/ml tetracycline by OD600 based analysis; assay type: organism-based; details: in vivo, dose 3-6 µg/ml
Klebsiella pneumoniae [6] = assay: Hormesis activity against Klebsiella pneumoniae assessed as promotion of bacterial growth at 3 to 6 ug/ml measured for 24 hrs in presence of efflux pump inhibitor, CCCP by OD600 based analysis; assay type: ADME, organism-based; details: in vivo, dose 3-6 µg/ml
Enterobacter cloacae [7] = assay: Hormesis activity against Enterobacter cloacae assessed as promotion of bacterial growth by measuring prolonged logarithmic growth phase at 3 to 6 ug/ml measured for 24 hrs by OD600 based analysis; assay type: organism-based; details: in vivo, dose 3-6 µg/ml
Enterobacter cloacae [8] = assay: Hormesis activity against Enterobacter cloacae assessed as promotion of bacterial growth up to 25 ug/ml measured for 24 hrs in presence of efflux pump inhibitor, CCCP and 8 ug/ml tetracycline by OD600 based analysis; assay type: ADME, organism-based; details: in vivo, dose <=25 µg/ml
Klebsiella pneumoniae [9] = assay: Hormesis activity against Klebsiella pneumoniae assessed as increase in antibiotic MIC by measuring streptomycin MIC at 3 ug/ml incubated for 12 hrs by OD600 based analysis (reference value: 0.78125 ug/ml); assay type: ADME, organism-based; details: in vivo, dose 3 µg/ml
Klebsiella pneumoniae [10] = assay: Hormesis activity against Klebsiella pneumoniae assessed as increase in antibiotic MIC by measuring atreonamMIC at 3 ug/ml incubated for 12 hrs by OD600 based analysis (reference value: 1.5625 ug/ml); assay type: ADME, organism-based; details: in vivo, dose 3 µg/ml
Klebsiella pneumoniae [11] = assay: Hormesis activity against overnight compound-treated Klebsiella pneumoniae assessed as increase in antibiotic MIC by measuring rifampicin MIC at 3 ug/ml incubated for 12 hrs by OD600 based analysis (reference value: 25 ug/ml); assay type: ADME, organism-based; details: in vivo, dose 3 µg/ml
Klebsiella pneumoniae [12] = assay: Hormesis activity against overnight compound-treated Klebsiella pneumoniae assessed as increase in antibiotic MIC by measuring hygromycinMIC at 3 ug/ml incubated for 12 hrs by OD600 based analysis (reference value: 12.5 ug/ml); assay type: ADME, organism-based; details: in vivo, dose 3 µg/ml
Klebsiella pneumoniae [13] = assay: Hormesis activity against overnight compound-treated Klebsiella pneumoniae assessed as increase in antibiotic MIC by measuring ampicillin MIC at 3 ug/ml incubated for 12 hrs by OD600 based analysis (reference value: 12.5 ug/ml); assay type: ADME, organism-based; details: in vivo, dose 3 µg/ml
Klebsiella pneumoniae [14] = assay: Hormesis activity against overnight compound-treated Klebsiella pneumoniae assessed as increase in antibiotic MIC by measuring cefotaxime MIC at 3 ug/ml incubated for 12 hrs by OD600 based analysis (reference value: 0.39625 ug/ml); assay type: ADME, organism-based; details: in vivo, dose 3 µg/ml
Klebsiella pneumoniae [15] = assay: Hormesis activity against Klebsiella pneumoniae deficient in KmrA gene expression assessed as increase in antibiotic MIC by measuring tetracycline MIC at 3 ug/ml incubated for 12 hrs by OD600 based analysis (reference value: 6 ug/ml); assay type: ADME, organism-based; details: in vivo, dose 3 µg/ml
Klebsiella pneumoniae [16] = assay: Hormesis activity against Klebsiella pneumoniae deficient in KmrA gene expression assessed as increase in antibiotic MIC by measuring rifampicin MIC at 3 ug/ml incubated for 12 hrs by OD600 based analysis (reference value: 25 ug/ml); assay type: ADME, organism-based; details: in vivo, dose 3 µg/ml
Klebsiella pneumoniae [17] = assay: Hormesis activity against Klebsiella pneumoniae deficient in KmrA gene expression assessed as increase in antibiotic MIC by measuring ciprofloxacin MIC at 3 ug/ml incubated for 12 hrs by OD600 based analysis (reference value: 0.0390625 ug/ml); assay type: ADME, organism-based; details: in vivo, dose 3 µg/ml
Klebsiella pneumoniae [18] = assay: Hormesis activity against overnight compound-treated Klebsiella pneumoniae deficient in KmrA gene expression assessed as increase in antibiotic MIC by measuring ciprofloxacin MIC at 3 ug/ml incubated for 12 hrs by OD600 based analysis (reference value: 0.0390625 ug/ml); assay type: ADME, organism-based; details: in vivo, dose 3 µg/ml
Klebsiella pneumoniae [19] = assay: Hormesis activity against overnight compound-treated Klebsiella pneumoniae deficient in KmrA gene expression assessed as increase in antibiotic MIC by measuring chloramphenicol MIC at 3 ug/ml incubated for 12 hrs by OD600 based analysis (reference value: 6.25 ug/ml); assay type: ADME, organism-based; details: in vivo, dose 3 µg/ml
Klebsiella pneumoniae [20] = assay: Hormesis activity against overnight compound-treated Klebsiella pneumoniae deficient in KmrA gene expression assessed as increase in antibiotic MIC by measuring meropenem MIC at 3 ug/ml incubated for 12 hrs by OD600 based analysis (reference value: 0.39625 ug/ml); assay type: ADME, organism-based; details: in vivo, dose 3 µg/ml
Enterobacter cloacae [21] = assay: Hormesis activity against Enterobacter cloacae assessed as increase in antibiotic MIC by measuring azithromycin MIC at 3 ug/ml incubated for 12 hrs by OD600 based analysis (reference value: 6.25 ug/ml); assay type: ADME, organism-based; details: in vivo, dose 3 µg/ml
Enterobacter cloacae [22] = assay: Hormesis activity against Enterobacter cloacae assessed as increase in antibiotic MIC by measuring cefotaxime MIC at 3 ug/ml incubated for 12 hrs by OD600 based analysis (reference value: 1.5625 ug/ml); assay type: ADME, organism-based; details: in vivo, dose 3 µg/ml
Enterobacter cloacae [23] = assay: Hormesis activity against overnight compound-treated Enterobacter cloacae assessed as increase in antibiotic MIC by measuring tetracycline MIC at 3 ug/ml incubated for 12 hrs by OD600 based analysis (reference value: 8 ug/ml); assay type: ADME, organism-based; details: in vivo, dose 3 µg/ml
Enterobacter cloacae [24] = assay: Hormesis activity against overnight compound-treated Enterobacter cloacae assessed as increase in antibiotic MIC by measuring ciprofloxacin MIC at 3 ug/ml incubated for 12 hrs by OD600 based analysis (reference value: 0.0390625 ug/ml); assay type: ADME, organism-based; details: in vivo, dose 3 µg/ml
Enterobacter cloacae [25] = assay: Hormesis activity against overnight compound-treated Enterobacter cloacae assessed as increase in antibiotic MIC by measuring chloramphenicol MIC at 3 ug/ml incubated for 12 hrs by OD600 based analysis (reference value: 3.125 ug/ml); assay type: ADME, organism-based; details: in vivo, dose 3 µg/ml
Enterobacter cloacae [26] = assay: Hormesis activity against overnight compound-treated Enterobacter cloacae assessed as increase in antibiotic MIC by measuring meropenem MIC at 3 ug/ml incubated for 12 hrs by OD600 based analysis (reference value: 0.1953 ug/ml); assay type: ADME, organism-based; details: in vivo, dose 3 µg/ml
Acinetobacter baumannii [27] = assay: Hormesis activity against Acinetobacter baumannii assessed as increase in antibiotic MIC by measuring tetracycline MIC at 3 ug/ml incubated for 12 hrs by OD600 based analysis (reference value: 240 ug/ml); assay type: ADME, organism-based; details: in vivo, dose 3 µg/ml
Acinetobacter baumannii [28] = assay: Hormesis activity against Acinetobacter baumannii assessed as increase in antibiotic MIC by measuring ciprofloxacin MIC at 3 ug/ml incubated for 12 hrs by OD600 based analysis (reference value: 0.3125 ug/ml); assay type: ADME, organism-based; details: in vivo, dose 3 µg/ml
Acinetobacter baumannii [29] = assay: Hormesis activity against Acinetobacter baumannii assessed as increase in antibiotic MIC by measuring meropenem MIC at 3 ug/ml incubated for 12 hrs by OD600 based analysis (reference value: 0.625 ug/ml); assay type: ADME, organism-based; details: in vivo, dose 3 µg/ml

fold change (FC) [3]: 2.5
fold change (FC) [4]: 2
MIC (Klebsiella pneumoniae [9]): 1.5625 µg/mL
MIC (Klebsiella pneumoniae [10]): 1.5625 µg/mL
MIC (Klebsiella pneumoniae [11]): 50 µg/mL
MIC (Klebsiella pneumoniae [12]): 12.5 µg/mL
MIC (Klebsiella pneumoniae [13]): 12.5 µg/mL
MIC (Klebsiella pneumoniae [14]): 0.3962 µg/mL
MIC (Klebsiella pneumoniae [15]): 6 µg/mL
MIC (Klebsiella pneumoniae [16]): 25 µg/mL
MIC (Klebsiella pneumoniae [17]): 0.03906 µg/mL
MIC (Klebsiella pneumoniae [18]): 0.07812 µg/mL
MIC (Klebsiella pneumoniae [19]): 6.25 µg/mL
MIC (Klebsiella pneumoniae [20]): 0.3962 µg/mL
MIC (Enterobacter cloacae [21]): 6.25 µg/mL
MIC (Enterobacter cloacae [22]): 3.125 µg/mL
MIC (Enterobacter cloacae [23]): 16 µg/mL
MIC (Enterobacter cloacae [24]): 0.1562 µg/mL
MIC (Enterobacter cloacae [25]): 3.125 µg/mL
MIC (Enterobacter cloacae [26]): 0.1953 µg/mL
MIC (Acinetobacter baumannii [27]): 240 µg/mL
MIC (Acinetobacter baumannii [28]): 0.3125 µg/mL
MIC (Acinetobacter baumannii [29]): 0.625 µg/mL
Structure (SMILES): COc1ccc2cc3[n+](cc2c1OC)CCc1cc2c(cc1-3)OCO2 [BERBERINE]
Activity [1]: Toxic
Activity (Klebsiella pneumoniae [2]): Non-Toxic
Activity (Klebsiella pneumoniae [5]): Toxic
Activity (Klebsiella pneumoniae [6]): Non-Toxic
Activity (Enterobacter cloacae [7]): Toxic
Activity (Enterobacter cloacae [8]): Non-Toxic

Source: ChEMBL document CHEMBL4831545, “Hormesis Effect of Berberine against Klebsiella pneumoniae Is Mediated by Up-Regulation of the Efflux Pump KmrA” (J Nat Prod, 2021)
